Data set [1] deals with hepatic GSH. In words: Hepatic glutathione depletion after acetaminophen in Swiss mice (Brzeznicka and Piotrowski 1989). It counts as in vivo. The source says: The bioequivalence level is 95%.
The test system of data set [2] is hepatic GSH. As to conditions: mice, cited from earlier work.

On to `CC(=O)Nc1ccc(O)cc1` [acetaminophen], for which the results for the “safety exposure ratio compared with human levels (1.3 g/day, 70 kg)” value with hepatic GSH [1] (Swiss mice 400 mg/kg) and in the data set on hepatic GSH [1] (Swiss mice 600 mg/kg) were 22 fold and 32 fold, respectively. The “time after administration at which circulating hepatic GSH changes began” value with hepatic GSH [2] (100 mg/kg to 600 mg/kg) is recorded as ≤ 15 min. For the same compound, in the data set with hepatic GSH [2] (all dose groups), the “time after injection of minimum GSH level” value was 2 h.

These data come from patent US20140288113A1, “Extended Release Compositions Comprising Hydrocodone And Acetaminophen For Rapid Onset And Prolonged Analgesia That May Be Administered Without Regard To Food” (MALLINCKRODT LLC, priority 2013, published 2014).
